# Tests used:
# in vitro = in vitro ADME; settings: human, pH 7.4, 37°C, 10 µM compound; for Papp A→B: apical-to-basal; for Papp B→A: basal-to-apical
# Experimental: Permeability measurements across polarized, confluent CALU-3 cell monolayers grown on permeable filter supports are used to provide information on the potential of a compound to pass the lung epithelium. Apparent permeability coefficients (Papp) of the compounds across the CALU-3 cell monolayers are measured (pH 7.4, 37°C) in apical-to-basal (AB) and basal-to-apical (BA) transport direction.
# CALU-3 cells (1-2 x 10^5 cells/1 cm^2 area) are seeded on filter inserts (Costar transwell polycarbonate filters, 0.4 µm pore size) and cultured (for 10 - 12 days DMEM) until tight monolayers are formed. Compounds of interest are dissolved in appropriate solvent (DMSO, 10 mM stock solution). Stock solutions are diluted with HTP-4 buffer (128.13 mM NaCl, 5.36 mM KCl, 1 mM MgSO4, 1.8 mM CaCl2, 4.17 mM NaHCO3, 1.19 mM Na2HPO4 x 7H2O, 0.41 mM NaH2PO4xH2O, 15 mM HEPES, 20 mM glucose, 0.25 % BSA, pH 7.4) to prepare the transport solutions (10 µM compound, final DMSO <= 0.5 %). The transport solution (TL) is applied to the apical or basolateral donor side for measuring A-B or B-A permeability (3 filter replicates), respectively. The receiver side contains the same buffer as the donor side. After 30 min of accommodation, samples are collected at the start t0 = 0 min and at the end of the experiment tn = 90 min from the donor and at 0, 30, 60, and 90 min also from the receiver chamber. Volume removed is replenished by HTP-4 buffer. The compound concentration in the samples is measured by HPLC-MS/MS or scintillation counting. The permeability coefficient (Papp) and efflux ratio are calculated according to: Papp [cm/s] = (concentration receiver [nM] * volume receiver [mL]/time interval [sec])*(1/filter area)*(1/donor concentration [nM]).
# ENaC = molecular target: T1, ENaC (Mus musculus, UniProt Q61180+Q9WU38+Q9WU39); experiment: Ussing Chamber assay (short circuit current, amiloride sensitive I_SC); format: cell-based; settings: Mouse kidney M-1 cells, apical administration, 37°C
# T1 construct: Mouse kidney M-1 cells were cultivated in DMEM containing 5% FCS and 5µM dexamethasone; endogenous in cells; host or cells: Mouse kidney M-1 cells (cortical collecting duct line), dexamethasone-treated, on transwell filters
# T1 sequence (Q61180 1-699): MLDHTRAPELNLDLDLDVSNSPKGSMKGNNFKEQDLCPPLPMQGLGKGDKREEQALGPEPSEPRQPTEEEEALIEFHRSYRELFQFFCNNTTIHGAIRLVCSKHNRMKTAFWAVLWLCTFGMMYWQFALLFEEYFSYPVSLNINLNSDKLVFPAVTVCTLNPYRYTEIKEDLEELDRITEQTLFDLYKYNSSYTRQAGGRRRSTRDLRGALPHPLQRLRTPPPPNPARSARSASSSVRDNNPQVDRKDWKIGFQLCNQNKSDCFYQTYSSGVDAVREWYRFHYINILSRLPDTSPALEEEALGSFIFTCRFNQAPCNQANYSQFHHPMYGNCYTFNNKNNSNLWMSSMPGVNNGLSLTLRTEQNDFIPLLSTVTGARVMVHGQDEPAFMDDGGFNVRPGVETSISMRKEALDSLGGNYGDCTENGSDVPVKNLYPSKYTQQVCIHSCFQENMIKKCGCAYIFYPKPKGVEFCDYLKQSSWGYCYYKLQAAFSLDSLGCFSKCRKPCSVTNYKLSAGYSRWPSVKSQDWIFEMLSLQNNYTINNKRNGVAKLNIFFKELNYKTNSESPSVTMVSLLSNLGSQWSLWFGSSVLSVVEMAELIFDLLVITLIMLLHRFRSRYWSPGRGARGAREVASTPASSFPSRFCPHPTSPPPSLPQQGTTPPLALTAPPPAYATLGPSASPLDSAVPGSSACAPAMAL
# T1 sequence (Q9WU38 1-638): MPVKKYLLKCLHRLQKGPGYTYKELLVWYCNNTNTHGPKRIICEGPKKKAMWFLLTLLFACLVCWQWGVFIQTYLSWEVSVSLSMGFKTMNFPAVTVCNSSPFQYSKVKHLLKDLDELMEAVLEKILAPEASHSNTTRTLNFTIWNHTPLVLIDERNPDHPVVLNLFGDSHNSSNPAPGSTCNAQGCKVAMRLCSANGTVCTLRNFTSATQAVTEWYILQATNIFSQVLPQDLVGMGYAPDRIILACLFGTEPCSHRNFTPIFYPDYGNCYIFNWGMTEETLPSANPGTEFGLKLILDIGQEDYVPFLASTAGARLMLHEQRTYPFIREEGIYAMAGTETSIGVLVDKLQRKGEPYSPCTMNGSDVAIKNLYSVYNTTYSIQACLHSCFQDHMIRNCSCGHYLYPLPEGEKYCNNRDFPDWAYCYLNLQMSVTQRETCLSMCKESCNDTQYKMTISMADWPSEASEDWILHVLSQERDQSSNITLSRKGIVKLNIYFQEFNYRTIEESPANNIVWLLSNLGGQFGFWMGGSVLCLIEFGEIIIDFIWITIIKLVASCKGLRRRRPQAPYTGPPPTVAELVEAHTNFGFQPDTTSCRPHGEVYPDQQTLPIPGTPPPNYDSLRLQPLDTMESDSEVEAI
# T1 sequence (Q9WU39 1-655): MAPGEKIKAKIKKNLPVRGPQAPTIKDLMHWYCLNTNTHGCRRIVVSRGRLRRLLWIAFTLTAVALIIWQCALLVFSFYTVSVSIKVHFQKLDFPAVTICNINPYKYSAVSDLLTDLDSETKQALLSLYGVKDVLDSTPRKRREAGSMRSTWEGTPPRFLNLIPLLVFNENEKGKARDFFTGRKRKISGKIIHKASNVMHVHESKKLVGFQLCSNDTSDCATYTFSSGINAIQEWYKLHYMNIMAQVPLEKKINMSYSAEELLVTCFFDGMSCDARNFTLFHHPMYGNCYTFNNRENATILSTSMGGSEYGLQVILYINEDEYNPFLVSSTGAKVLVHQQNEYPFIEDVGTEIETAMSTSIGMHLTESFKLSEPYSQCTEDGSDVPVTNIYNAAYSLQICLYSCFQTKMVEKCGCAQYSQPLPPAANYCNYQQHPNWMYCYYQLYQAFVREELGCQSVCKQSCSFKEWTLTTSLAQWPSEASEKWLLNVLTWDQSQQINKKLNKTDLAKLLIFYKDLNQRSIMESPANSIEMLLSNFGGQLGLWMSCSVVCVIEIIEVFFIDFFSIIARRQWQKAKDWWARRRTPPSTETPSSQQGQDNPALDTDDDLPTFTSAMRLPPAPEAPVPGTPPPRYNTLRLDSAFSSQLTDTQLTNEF
# Experimental: The IC50 values of the example compounds given above were determined in the Ussing Chamber assay.
# Ussing Chamber: Mouse kidney M-1 cells were cultivated in DMEM containing 5% FCS and 5µM dexamethasone for 10 to 12 days on polyester transwell filters. Filters were inserted into a teflon-coated well-plate which fit into the ussing chamber system. Prior to measurement the medium of M-1 cells was replaced with Caco-2 transport buffer (Invitrogen, Germany). During measurements, the Ussing chamber temperature was kept at 37°C. Short circuit currents (I_sc) were measured in the voltage-clamp mode with the software package Lab View for data acquisition and analysis. The transepithelial electrical resistance (TEER) was determined by the application of voltage steps of ±5mV every 5 sec. Compounds were administered at a final concentration of 3µM or at increasing concentrations (1-3-10µM) to the apical solution. At the end of each experiment the amiloride sensitive I_SC was measured by adding 3µM amiloride to the apical compartment. Results are expressed as inhibition in percent of the amiloride effect or as IC50.
Compound,Papp A→B (in vitro),Papp B→A (in vitro),IC50 (ENaC)
CC[n+]1c(CNC(=O)c2nc(Cl)cnc2N)n(CC2CCCO2)c2cc(OCC(=O)N3CC[S+]([O-])CC3)ccc21 (stereo not drawn) [Example 1.01],0.8 ×10⁻⁶ cm/s,0.3 ×10⁻⁶ cm/s,–
CCn1c(CNC(=O)c2nc(Cl)cnc2N)[n+](CC)c2ccc(OCC(=O)NCCCN)cc21 [Example 2.01],0.2 ×10⁻⁶ cm/s,0.5 ×10⁻⁶ cm/s,1 nM
CCOCCN1CCC(NC(=O)COc2ccc3c(c2)n(CC)c(CNC(=O)c2nc(Cl)cnc2N)[n+]3CC)CC1 [Example 2.07],–,–,3 nM

# Source: EP3298022B1, “NOVEL ANNELATED PHENOXYACETAMIDES” (Boehringer Ingelheim International GmbH, priority 2015, dated 2017)
